Assay results reported in ChEMBL document CHEMBL1201862, “PubChem BioAssay data set” (2004).
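Step 1: Grow cells in 96-well plates. Step 2: Expose to compound for 48 hours at 5 concentrations. Step 3: Interpolate endpoints linearly; if unreached, use highest concentration. GI50 is the concentration that inhibits growth by half.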 Calls of active or inactive are those of the source. No stated cut-off is given here; in the data, active = GI50 up to about 1.1 µM and inactive = higher.

Experiments:
Assay in all cases: DTP human tumour cell line panel, 48 h
SR = system: SR
HL-60 = system: HL-60
SNB-19 = system: SNB-19
IGROV-1 = system: IGROV-1
UO-31 = system: UO-31
SW-620 = system: SW-620
NCI-H226 = system: NCI-H226
M14 = system: M14
ACHN = system: ACHN
HOP-62 = system: HOP-62
HCT-116 = system: HCT-116
OVCAR-5 = system: OVCAR-5
SN12C = system: SN12C
LOX IMVI = system: LOX IMVI
A498 = system: A498
NCI-H23 = system: NCI-H23
KM-20L2 = system: KM-20L2
LXFL 529 = system: LXFL 529
OVCAR-8 = system: OVCAR-8
DMS-114 = system: DMS-114
UACC-62 = system: UACC-62
SF-539 = system: SF-539
NCI-H522 = system: NCI-H522
OVCAR-4 = system: OVCAR-4
Malme-3M = system: Malme-3M
CAKI-1 = system: CAKI-1
EKVX = system: EKVX
SK-MEL-5 = system: SK-MEL-5
HOP-92 = system: HOP-92
MOLT-4 = system: MOLT-4
M19-MEL = system: M19-MEL
COLO 205 = system: COLO 205
SK-MEL-2 = system: SK-MEL-2
A549 = system: A549
HCC 2998 = system: HCC 2998
XF498 = system: XF498
786-0 = system: 786-0
OVCAR-3 = system: OVCAR-3
DLD-1 = system: DLD-1
SNB-78 = system: SNB-78
SK-MEL-28 = system: SK-MEL-28
K562 = system: K562
UACC-257 = system: UACC-257
U-251 = system: U-251
SF-295 = system: SF-295
KM12 = system: KM12
SF-268 = system: SF-268
CCRF-CEM = system: CCRF-CEM
NCI-H460 = system: NCI-H460
SNB-75 = system: SNB-75
TK-10 = system: TK-10
HCT-15 = system: HCT-15
SK-OV-3 = system: SK-OV-3
HT-29 = system: HT-29

For `O=C1CSC(/C(=C/c2ccccc2)c2nc3ccccc3[nH]2)=N1`, the GI50 (SR) was 68.2 µM (inactive), the GI50 (HL-60) was 71.9 µM (inactive) and the GI50 (SNB-19) was 25.9 µM (inactive). The GI50 (IGROV-1) was 44.9 µM (inactive), the GI50 (UO-31) was > 100 µM (inactive) and the GI50 (SW-620) was > 100 µM (inactive). For the same compound, the GI50 (NCI-H226) was 7.55 µM (inactive), the GI50 (M14) was 57 µM (inactive) and the GI50 (ACHN) was > 100 µM (inactive). The GI50 (HOP-62) was 41.2 µM (inactive), the GI50 (HCT-116) was 41.7 µM (inactive) and the GI50 (OVCAR-5) was > 100 µM (inactive). The GI50 (SN12C) was 75.3 µM (inactive), the GI50 (LOX IMVI) was > 100 µM (inactive) and the GI50 (A498) was > 100 µM (inactive). For the same compound, the GI50 (NCI-H23) was 28.1 µM (inactive), the GI50 (KM-20L2) was > 100 µM (inactive) and the GI50 (LXFL 529) was 47.4 µM (inactive). The GI50 (OVCAR-8) was 47.2 µM (inactive), the GI50 (DMS-114) was 32.3 µM (inactive) and the GI50 (UACC-62) was 49.8 µM (inactive). The GI50 (SF-539) was 23.6 µM (inactive), the GI50 (NCI-H522) was 41.9 µM (inactive) and the GI50 (OVCAR-4) was > 100 µM (inactive). The GI50 (Malme-3M) was 60.5 µM (inactive), the GI50 (CAKI-1) was > 100 µM (inactive) and the GI50 (EKVX) was > 100 µM (inactive). The GI50 (SK-MEL-5) was 19.7 µM (inactive), the GI50 (HOP-92) was 61.4 µM (inactive) and the GI50 (MOLT-4) was > 100 µM (inactive). For the same compound, the GI50 (M19-MEL) was 65.9 µM (inactive), the GI50 (COLO 205) was > 100 µM (inactive) and the GI50 (SK-MEL-2) was 58.2 µM (inactive). The GI50 (A549) was 72.6 µM (inactive), the GI50 (HCC 2998) was > 100 µM (inactive) and the GI50 (XF498) was 41.3 µM (inactive). For the same compound, the GI50 (786-0) was 65.2 µM (inactive), the GI50 (OVCAR-3) was > 10 µM (inactive) and the GI50 (DLD-1) was > 100 µM (inactive). The GI50 (SNB-78) was > 100 µM (inactive), the GI50 (SK-MEL-28) was > 100 µM (inactive) and the GI50 (K562) was > 100 µM (inactive). For the same compound, the GI50 (UACC-257) was > 100 µM (inactive), the GI50 (U-251) was 23.3 µM (inactive) and the GI50 (SF-295) was 63.8 µM (inactive). For the same compound, the GI50 (KM12) was 32.4 µM (inactive), the GI50 (SF-268) was > 100 µM (inactive) and the GI50 (CCRF-CEM) was 34 µM (inactive). For the same compound, the GI50 (NCI-H460) was > 100 µM (inactive), the GI50 (SNB-75) was 14.2 µM (inactive) and the GI50 (TK-10) was > 100 µM (inactive). For the same compound, the GI50 (HCT-15) was over 100 µM, the GI50 (SK-OV-3) was 23.3 µM (inactive) and the GI50 (HT-29) was 73.6 µM (inactive).
